Measurements published in ChEMBL document CHEMBL4507262, “Data for DCP probe A-1596586” (2021).

Key:
[1] = system: eIF-2-alpha kinase GCN2 (Homo sapiens), Q9P2K8 [S808G]; conditions: Compound concentration 1000.0 nM
[2] = target: BDNF/NT-3 growth factors receptor (Homo sapiens) (UniProt Q16620); conditions: Compound concentration 1000.0 nM
[3] = target: Testis-specific serine/threonine-protein kinase 1 (Homo sapiens) (UniProt Q9BXA7); conditions: Compound concentration 1000.0 nM
[4] = target: Receptor-type tyrosine-protein kinase FLT3 (Homo sapiens) (UniProt P36888); conditions: Compound concentration 1000.0 nM
Receptor-type tyrosine-protein kinase FLT3 (Homo sapiens), sequence (P36888 whole entry, the tested form may be a part): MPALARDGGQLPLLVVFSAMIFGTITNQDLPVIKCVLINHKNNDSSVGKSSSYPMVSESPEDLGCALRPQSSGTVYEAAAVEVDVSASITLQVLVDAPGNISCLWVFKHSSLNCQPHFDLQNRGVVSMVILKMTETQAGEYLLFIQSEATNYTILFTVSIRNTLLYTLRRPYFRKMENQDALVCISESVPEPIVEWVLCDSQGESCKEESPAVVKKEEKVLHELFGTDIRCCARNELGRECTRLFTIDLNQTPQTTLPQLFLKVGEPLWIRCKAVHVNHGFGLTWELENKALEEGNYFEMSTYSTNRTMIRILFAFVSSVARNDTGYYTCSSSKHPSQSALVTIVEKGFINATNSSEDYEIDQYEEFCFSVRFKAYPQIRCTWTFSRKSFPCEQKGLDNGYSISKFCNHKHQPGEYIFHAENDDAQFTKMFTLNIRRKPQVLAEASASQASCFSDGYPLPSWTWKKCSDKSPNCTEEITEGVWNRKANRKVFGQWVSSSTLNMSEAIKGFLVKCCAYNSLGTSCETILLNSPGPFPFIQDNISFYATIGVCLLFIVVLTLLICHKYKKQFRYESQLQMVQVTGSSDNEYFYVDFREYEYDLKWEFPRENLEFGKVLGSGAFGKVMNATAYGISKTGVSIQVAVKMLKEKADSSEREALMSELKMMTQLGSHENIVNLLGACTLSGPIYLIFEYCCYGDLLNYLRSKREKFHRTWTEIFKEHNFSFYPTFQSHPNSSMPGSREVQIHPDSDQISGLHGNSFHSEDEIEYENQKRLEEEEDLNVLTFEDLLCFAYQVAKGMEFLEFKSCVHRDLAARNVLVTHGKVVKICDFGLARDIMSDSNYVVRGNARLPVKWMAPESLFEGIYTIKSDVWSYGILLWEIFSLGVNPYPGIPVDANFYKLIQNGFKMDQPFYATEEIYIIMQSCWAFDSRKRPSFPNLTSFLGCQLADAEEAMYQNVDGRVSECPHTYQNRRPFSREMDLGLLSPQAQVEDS

[5] = system: Leucine-rich repeat serine/threonine-protein kinase 2 (Homo sapiens), Q5S007 [G2019S]; conditions: Compound concentration 1000.0 nM
[6] = target: Substance-K receptor (Homo sapiens) (UniProt P21452); assay: NK2 (h) Eurofins-Cerep binding assay; set-up: ligand concentration 0.1 nM; conditions: filed as agonist, Compound concentration 10.0 uM
[7] = system: Receptor-type tyrosine-protein kinase FLT3 (Homo sapiens), P36888 [UNDEFINED MUTATION]; conditions: Compound concentration 1000.0 nM
Receptor-type tyrosine-protein kinase FLT3 (Homo sapiens), P36888 [UNDEFINED MUTATION], sequence (P36888 whole entry, looked up, change not shown): as the sequence (P36888 whole entry, the tested form may be a part) above

[8] = target: Mitogen-activated protein kinase kinase kinase 5 (Homo sapiens) (UniProt Q99683); conditions: Compound concentration 1000.0 nM
[9] = target: Serine/threonine-protein kinase DCLK3 (Homo sapiens) (UniProt Q9C098); conditions: Compound concentration 1000.0 nM
[10] = target: Ephrin type-A receptor 5 (Homo sapiens) (UniProt P54756); conditions: Compound concentration 1000.0 nM
[11] = target: Histamine H1 receptor (Homo sapiens) (UniProt P35367); assay: H1 (h) Eurofins-Cerep binding assay; set-up: ligand concentration 1 nM; conditions: filed as antagonist, Compound concentration 10.0 uM
Histamine H1 receptor (Homo sapiens), sequence (P35367 whole entry): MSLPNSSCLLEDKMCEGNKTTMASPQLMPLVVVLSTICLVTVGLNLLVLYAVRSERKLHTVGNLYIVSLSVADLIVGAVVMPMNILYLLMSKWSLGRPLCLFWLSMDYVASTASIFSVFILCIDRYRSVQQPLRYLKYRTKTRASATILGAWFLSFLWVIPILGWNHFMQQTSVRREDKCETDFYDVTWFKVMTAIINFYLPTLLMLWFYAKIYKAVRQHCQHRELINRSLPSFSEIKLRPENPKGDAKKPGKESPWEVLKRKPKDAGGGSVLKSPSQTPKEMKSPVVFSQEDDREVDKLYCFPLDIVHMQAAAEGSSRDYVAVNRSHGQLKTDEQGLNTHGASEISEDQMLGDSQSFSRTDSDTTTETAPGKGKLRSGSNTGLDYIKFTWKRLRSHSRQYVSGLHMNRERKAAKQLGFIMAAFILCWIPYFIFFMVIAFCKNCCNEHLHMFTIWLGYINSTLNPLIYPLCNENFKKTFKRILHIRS

[12] = target: T1, Alpha-1B adrenergic receptor (Homo sapiens) (UniProt P35368); assay: Alpha1B (h) Eurofins-Cerep binding assay; conditions: filed as antagonist, Compound concentration 10.0 uM
T1 sequence (whole entry): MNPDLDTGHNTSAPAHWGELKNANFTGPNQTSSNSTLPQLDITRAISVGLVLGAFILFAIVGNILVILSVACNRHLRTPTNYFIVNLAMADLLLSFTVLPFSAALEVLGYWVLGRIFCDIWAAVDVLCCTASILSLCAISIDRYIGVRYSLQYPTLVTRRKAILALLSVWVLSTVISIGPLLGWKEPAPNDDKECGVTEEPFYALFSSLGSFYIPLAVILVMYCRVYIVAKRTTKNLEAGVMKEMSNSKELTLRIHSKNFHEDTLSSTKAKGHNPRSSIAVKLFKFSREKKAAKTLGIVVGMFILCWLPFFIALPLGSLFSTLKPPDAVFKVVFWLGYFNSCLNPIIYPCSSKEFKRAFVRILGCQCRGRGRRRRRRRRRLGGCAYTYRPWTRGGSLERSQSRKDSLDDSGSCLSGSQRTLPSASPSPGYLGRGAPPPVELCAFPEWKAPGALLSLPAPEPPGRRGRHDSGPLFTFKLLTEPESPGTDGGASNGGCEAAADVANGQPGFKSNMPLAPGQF

[13] = system: Epidermal growth factor receptor (Homo sapiens), P00533 [G719C]; conditions: Compound concentration 1000.0 nM
[14] = system: Tyrosine-protein kinase ABL1 (Homo sapiens), P00519 [H396P]; conditions: Compound concentration 1000.0 nM
[15] = target: Urotensin-2 receptor (Homo sapiens) (UniProt Q9UKP6); assay: UT (h) Eurofins-Cerep binding assay; set-up: ligand concentration 0.1 nM; conditions: filed as agonist, Compound concentration 10.0 uM
Urotensin-2 receptor (Homo sapiens), sequence (Q9UKP6 whole entry): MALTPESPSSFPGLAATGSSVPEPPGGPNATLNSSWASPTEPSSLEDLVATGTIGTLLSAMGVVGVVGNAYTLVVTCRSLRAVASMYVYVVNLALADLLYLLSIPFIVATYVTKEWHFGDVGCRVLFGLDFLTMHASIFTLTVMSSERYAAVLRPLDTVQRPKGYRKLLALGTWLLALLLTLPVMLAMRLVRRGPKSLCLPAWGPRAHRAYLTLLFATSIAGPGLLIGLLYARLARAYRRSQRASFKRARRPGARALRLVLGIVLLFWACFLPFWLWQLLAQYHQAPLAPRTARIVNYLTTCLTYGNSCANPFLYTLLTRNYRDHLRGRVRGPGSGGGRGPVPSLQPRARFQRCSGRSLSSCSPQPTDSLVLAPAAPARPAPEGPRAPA

[16] = target: Activated CDC42 kinase 1 (Homo sapiens) (UniProt Q07912); conditions: Compound concentration 1000.0 nM
[17] = system: Epidermal growth factor receptor (Homo sapiens), P00533 [T790M]; conditions: Compound concentration 1000.0 nM
[18] = target: Serine/threonine-protein kinase 17B (Homo sapiens) (UniProt O94768); conditions: Compound concentration 1000.0 nM
[19] = target: Calcium/calmodulin-dependent protein kinase type 1D (Homo sapiens) (UniProt Q8IU85); conditions: Compound concentration 1000.0 nM
[20] = target: Receptor-type tyrosine-protein kinase FLT3 (Homo sapiens) (UniProt P36888); conditions: Compound concentration 1000.0 nM; remark: listed apart in the source
[21] = target: Phosphatidylinositol 3-kinase C2 domain-containing subunit gamma (Homo sapiens) (UniProt O75747); conditions: Compound concentration 1000.0 nM
Phosphatidylinositol 3-kinase C2 domain-containing subunit gamma (Homo sapiens), sequence (O75747 whole entry, the tested form may be a part): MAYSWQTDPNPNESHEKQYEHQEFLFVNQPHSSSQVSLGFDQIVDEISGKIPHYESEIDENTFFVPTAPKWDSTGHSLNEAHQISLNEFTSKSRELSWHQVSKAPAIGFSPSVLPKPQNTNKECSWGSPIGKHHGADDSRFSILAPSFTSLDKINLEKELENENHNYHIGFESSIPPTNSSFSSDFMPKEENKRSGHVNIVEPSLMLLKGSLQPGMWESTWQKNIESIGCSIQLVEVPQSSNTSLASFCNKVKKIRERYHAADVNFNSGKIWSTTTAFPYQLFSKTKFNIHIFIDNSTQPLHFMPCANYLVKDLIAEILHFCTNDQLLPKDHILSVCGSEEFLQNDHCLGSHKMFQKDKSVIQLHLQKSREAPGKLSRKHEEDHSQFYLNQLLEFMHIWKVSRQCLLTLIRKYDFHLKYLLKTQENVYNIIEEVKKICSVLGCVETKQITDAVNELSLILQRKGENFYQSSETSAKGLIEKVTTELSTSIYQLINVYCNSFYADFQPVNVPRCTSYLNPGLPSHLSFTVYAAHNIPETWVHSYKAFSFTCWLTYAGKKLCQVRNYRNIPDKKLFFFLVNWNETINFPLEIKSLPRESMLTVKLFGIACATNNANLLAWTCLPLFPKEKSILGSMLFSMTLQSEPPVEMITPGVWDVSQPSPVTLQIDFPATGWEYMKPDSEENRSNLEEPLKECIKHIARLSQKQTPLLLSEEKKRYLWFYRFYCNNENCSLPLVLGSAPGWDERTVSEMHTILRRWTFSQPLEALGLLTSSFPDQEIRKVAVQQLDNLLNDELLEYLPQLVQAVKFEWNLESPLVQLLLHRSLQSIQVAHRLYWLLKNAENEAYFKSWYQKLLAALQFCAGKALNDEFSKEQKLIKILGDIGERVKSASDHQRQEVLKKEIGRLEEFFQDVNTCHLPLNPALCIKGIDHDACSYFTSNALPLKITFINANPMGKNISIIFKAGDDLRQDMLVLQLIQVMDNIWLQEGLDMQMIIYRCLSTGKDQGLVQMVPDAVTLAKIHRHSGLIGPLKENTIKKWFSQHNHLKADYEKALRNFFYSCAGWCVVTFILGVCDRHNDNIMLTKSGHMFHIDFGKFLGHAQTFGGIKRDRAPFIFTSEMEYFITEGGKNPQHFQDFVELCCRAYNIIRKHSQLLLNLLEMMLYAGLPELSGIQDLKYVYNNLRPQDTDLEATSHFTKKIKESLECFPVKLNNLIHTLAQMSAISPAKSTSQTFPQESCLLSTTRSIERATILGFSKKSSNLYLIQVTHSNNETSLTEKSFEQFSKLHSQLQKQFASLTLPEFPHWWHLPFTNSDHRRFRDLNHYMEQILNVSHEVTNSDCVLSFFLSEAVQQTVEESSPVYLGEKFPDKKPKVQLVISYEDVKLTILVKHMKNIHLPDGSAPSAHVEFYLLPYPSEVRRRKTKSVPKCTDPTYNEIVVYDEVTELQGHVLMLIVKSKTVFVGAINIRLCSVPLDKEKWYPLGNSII

[22] = target: T2, Muscarinic acetylcholine receptor M5 (Homo sapiens) (UniProt P08912); conditions: Compound concentration 10.0 uM
T2 sequence (whole entry): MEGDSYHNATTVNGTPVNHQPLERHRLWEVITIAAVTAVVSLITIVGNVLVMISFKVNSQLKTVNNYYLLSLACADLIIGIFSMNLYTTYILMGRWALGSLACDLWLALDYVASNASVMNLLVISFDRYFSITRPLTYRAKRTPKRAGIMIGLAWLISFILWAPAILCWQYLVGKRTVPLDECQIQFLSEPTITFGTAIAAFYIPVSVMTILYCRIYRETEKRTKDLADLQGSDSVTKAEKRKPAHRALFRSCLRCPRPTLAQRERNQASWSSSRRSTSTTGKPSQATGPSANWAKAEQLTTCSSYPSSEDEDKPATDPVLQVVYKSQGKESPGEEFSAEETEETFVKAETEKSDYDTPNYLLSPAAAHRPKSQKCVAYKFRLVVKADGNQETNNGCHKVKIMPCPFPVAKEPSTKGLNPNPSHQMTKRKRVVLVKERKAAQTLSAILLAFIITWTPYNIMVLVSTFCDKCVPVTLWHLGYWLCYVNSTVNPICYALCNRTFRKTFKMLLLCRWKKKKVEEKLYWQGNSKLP

[23] = target: 5-hydroxytryptamine receptor 1B (Homo sapiens) (UniProt P28222); conditions: Compound concentration 10.0 uM
[24] = target: Dual specificity protein kinase CLK4 (Homo sapiens) (UniProt Q9HAZ1); conditions: Compound concentration 1000.0 nM
Dual specificity protein kinase CLK4 (Homo sapiens), sequence (Q9HAZ1 whole entry, looked up): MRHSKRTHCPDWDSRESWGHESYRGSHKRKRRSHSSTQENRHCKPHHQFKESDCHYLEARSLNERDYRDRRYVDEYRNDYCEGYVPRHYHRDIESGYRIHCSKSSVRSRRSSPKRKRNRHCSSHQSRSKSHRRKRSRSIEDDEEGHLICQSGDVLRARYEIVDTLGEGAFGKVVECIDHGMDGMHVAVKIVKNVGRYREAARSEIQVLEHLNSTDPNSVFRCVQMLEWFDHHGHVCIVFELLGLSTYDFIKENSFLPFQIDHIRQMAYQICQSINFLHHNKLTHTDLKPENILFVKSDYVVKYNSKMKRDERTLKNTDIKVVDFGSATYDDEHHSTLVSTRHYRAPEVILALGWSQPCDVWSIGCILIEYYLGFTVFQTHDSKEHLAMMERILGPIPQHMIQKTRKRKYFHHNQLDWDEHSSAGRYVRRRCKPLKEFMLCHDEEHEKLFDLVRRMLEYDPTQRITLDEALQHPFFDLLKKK

[25] = target: Tyrosine-protein kinase JAK3 (Homo sapiens) (UniProt P52333); conditions: Compound concentration 1000.0 nM
[26] = target: T1, Alpha-1B adrenergic receptor (Homo sapiens); conditions: Compound concentration 10.0 uM
[27] = target: Mitogen-activated protein kinase 15 (Homo sapiens) (UniProt Q8TD08); conditions: Compound concentration 1000.0 nM
Mitogen-activated protein kinase 15 (Homo sapiens), sequence (Q8TD08 whole entry): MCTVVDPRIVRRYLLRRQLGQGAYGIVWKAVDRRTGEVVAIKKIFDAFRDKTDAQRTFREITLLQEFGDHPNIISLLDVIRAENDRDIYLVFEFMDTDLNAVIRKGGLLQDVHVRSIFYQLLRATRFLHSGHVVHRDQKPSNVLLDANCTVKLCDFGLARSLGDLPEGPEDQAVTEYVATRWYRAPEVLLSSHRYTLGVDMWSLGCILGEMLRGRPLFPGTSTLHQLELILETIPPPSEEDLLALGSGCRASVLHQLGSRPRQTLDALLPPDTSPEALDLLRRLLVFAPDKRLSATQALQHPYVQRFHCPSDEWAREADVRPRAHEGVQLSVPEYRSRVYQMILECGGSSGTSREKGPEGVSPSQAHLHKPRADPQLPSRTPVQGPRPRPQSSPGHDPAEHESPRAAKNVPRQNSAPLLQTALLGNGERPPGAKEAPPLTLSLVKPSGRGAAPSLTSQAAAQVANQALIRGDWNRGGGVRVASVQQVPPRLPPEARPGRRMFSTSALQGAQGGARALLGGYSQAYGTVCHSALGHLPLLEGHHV

[28] = target: Neuropeptide Y receptor type 1 (Homo sapiens) (UniProt P25929); assay: Y1 (h) Eurofins-Cerep binding assay; set-up: ligand concentration 0.025 nM; conditions: filed as agonist, Compound concentration 10.0 uM
[29] = target: Serine/threonine-protein kinase Nek4 (Homo sapiens) (UniProt P51957); conditions: Compound concentration 1000.0 nM
[30] = target: Serine/threonine-protein kinase LATS2 (Homo sapiens) (UniProt Q9NRM7); conditions: Compound concentration 1000.0 nM
[31] = target: Mitogen-activated protein kinase kinase kinase 11 (Homo sapiens) (UniProt Q16584); conditions: Compound concentration 1000.0 nM

Testis-specific serine/threonine-protein kinase 1 (Homo sapiens), sequence (Q9BXA7 whole entry): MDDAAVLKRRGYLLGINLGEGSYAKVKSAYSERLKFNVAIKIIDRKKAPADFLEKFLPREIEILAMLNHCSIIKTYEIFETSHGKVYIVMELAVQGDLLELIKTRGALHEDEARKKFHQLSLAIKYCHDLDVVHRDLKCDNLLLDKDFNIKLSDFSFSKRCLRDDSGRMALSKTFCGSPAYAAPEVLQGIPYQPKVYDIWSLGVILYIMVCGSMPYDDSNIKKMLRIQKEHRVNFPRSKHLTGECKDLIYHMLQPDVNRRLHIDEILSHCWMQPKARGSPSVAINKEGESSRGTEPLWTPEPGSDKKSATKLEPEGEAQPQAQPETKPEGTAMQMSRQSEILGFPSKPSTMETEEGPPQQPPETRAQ

Compound | residual activity [1] | residual activity [2] | residual activity [3] | residual activity [4] | residual activity [5] | % Inhibition of Control Specific Binding (Mean n=2) [6] | residual activity [7] | residual activity [8] | residual activity [9] | residual activity [10] | % Inhibition of Control Specific Binding (Mean n=2) [11] | % Inhibition of Control Specific Binding (Mean n=2) [12] | residual activity [13] | residual activity [14] | % Inhibition of Control Specific Binding (Mean n=2) [15] | residual activity [16] | residual activity [17] | residual activity [18] | residual activity [19] | residual activity [20] | other results
COc1ccc2c(c1)O[C@H](c1ccc(OC)c(OC)c1)C[C@@H]2NC(=O)C1(c2ccc3c(c2)OC(F)(F)O3)CC1 [A-1596584] | 97% | 100% | 100% | 83% | 100% | 11.5% | 100% | 100% | 100% | 100% | 4.5% | 17.4% | 100% | 100% | 15.7% | 99% | 87% | 100% | 100% | 100% | residual activity [21]: 61%; inhibition [22]: 16.1%; inhibition [23]: -1%; residual activity [24]: 92%; residual activity [25]: 100%; inhibition [26]: 5.97%; residual activity [27]: 100%; % Inhibition of Control Specific Binding (Mean n=2) [28]: -0.4%; residual activity [29]: 86%; residual activity [30]: 89%; residual activity [31]: 100%
COc1ccc2c(c1)O[C@@H](c1ccc(OC)c(OC)c1)C[C@H]2NC(=O)C1(c2ccc3c(c2)OC(F)(F)O3)CC1 [A-1596586] | 95% | 91% | 100% | 80% | 90% | 11.5% | 100% | 94% | 98% | 100% | 6.7% | 4.8% | 96% | 85% | 29.3% | 100% | 82% | 100% | 94% | 100% | residual activity [21]: 83%; inhibition [22]: 2.95%; inhibition [23]: -0.84%; residual activity [24]: 100%; residual activity [25]: 88%; inhibition [26]: 49%; residual activity [27]: 100%; % Inhibition of Control Specific Binding (Mean n=2) [28]: 9.8%; residual activity [29]: 75%; residual activity [30]: 100%; residual activity [31]: 100%
